Measured values published in the supplement of paper PMC10702517.
± gives the standard deviation.

Experiments:
[1] = chemical recovery by SPE of plasma after PDMS sampling; higher = better extraction; conditions: pooled human plasma, extraction method: HLB SPE of plasma after PES
[2] = chemical recovery from spiked human plasma; higher = better extraction; conditions: pooled human plasma
[3] = extraction method: SPE only (HLB 96-well)
[4] = extraction method: solvent precipitation (ACN + hexane)
[5] = extraction method: PES+SPE (3 d PDMS equilibration then HLB SPE)
[6] = extraction method: SPE only (HLB 96-well), PES comparison experiment
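For chemical recovery by SPE of plasma after PDMS sampling in this document: over 400 spiked chemicals quantified by LC-HRMS or GC-HRMS via internal standard calibration, recovery relative to spike mix added to unspiked plasma extract to correct matrix effects.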

SMILES	chemical recovery by SPE of plasma ([1]; equilibration time (d): 1) [%]	chemical recovery by SPE of plasma ([1]; equilibration time (d): 3) [%]	chemical recovery by SPE of plasma ([1]; equilibration time (d): 6) [%]	chemical recovery [2, 3] [%]	chemical recovery [2, 4] [%]	chemical recovery [2, 5] [%]	chemical recovery [2, 6] [%]
c1ccc2c(c1)c1cccc3ccc4cccc2c4c31 [Benzo(e)pyrene]	1.45 ± 1.3	1.37 ± 1.2	1.06 ± 1.8	2.35 ± 0.68	57.7 ± 6.1	–	–
COc1ccc2cc(C(C)C(=O)O)ccc2c1 (centres undefined) [Naproxen]	–	36.6 ± 5.5	36.5 ± 9.1	63.8 ± 1.9	70.2 ± 4.7	66 ± 2.3	73.3 ± 9.3
C[C@]12C=CC(=O)C=C1CC[C@H]1[C@@H]3C[C@@H](O)[C@](O)(C(=O)CO)[C@@]3(C)C[C@H](O)[C@@]12F [Triamcinolone]	55.2 ± 12	58.4 ± 5.8	54.9 ± 10	–	–	–	50.5 ± 3.2
NS(=O)(=O)c1cc(C(=O)O)c(NCc2ccco2)cc1Cl [Furosemide]	55.5 ± 12	70.9 ± 4.3	66.2 ± 5.9	48.4 ± 7.2	69.3 ± 6.1	44.9 ± 5.1	50 ± 6.5
O=[N+]([O-])c1ccc(O)cc1 [4-Nitrophenol]	57.4 ± 7.2	59.3 ± 2.9	55.1 ± 4.6	41.5 ± 6.3	65.1 ± 6.7	48.9 ± 3	64.5 ± 4.6
COP(=O)(OC)C(O)C(Cl)(Cl)Cl (centres undefined) [Trichlorfon]	30.8 ± 2.4	25.3 ± 0.61	18.2 ± 1.2	33.1 ± 1.9	0.0499 ± 0.086	13.2 ± 1.2	43.1 ± 8.1
COc1cc(NS(=O)(=O)c2ccc(N)cc2)nc(OC)n1 [Sulfadimethoxine]	49 ± 9.9	50.2 ± 5.5	48.5 ± 7.4	30.1 ± 3.6	–	33.4 ± 3.4	45.7 ± 3.6
O=C(O)C(F)(F)C(F)(F)C(F)(F)F [Perfluorobutanoic acid]	24.1 ± 6	23.9 ± 1.9	23.3 ± 8.1	23.3 ± 2.6	73 ± 7.5	26.4 ± 3.3	41.2 ± 3.3
COc1nc(C)nc(NC(=O)NS(=O)(=O)c2ccccc2CCC(F)(F)F)n1 [Prosulfuron]	48.5 ± 11	50.6 ± 4.8	45.3 ± 5.2	37.9 ± 4.5	75.5 ± 0.94	44.3 ± 3.7	42.7 ± 6.3
CC(C)N1C(=O)c2ccccc2NS1(=O)=O [Bentazone]	54.8 ± 8.1	58 ± 4.1	54.7 ± 3.1	41.7 ± 3.2	75.2 ± 2.8	44.5 ± 3.6	63.8 ± 5.6
COc1c(C)c2c(c(O)c1C/C=C(\C)CCC(=O)O)C(=O)OC2 [Mycophenolic acid]	48.6 ± 4.3	53 ± 2.7	46.3 ± 2	45.5 ± 3.8	70.9 ± 5.3	44.01 ± 0.38	53.5 ± 4.5
C(=C/c1ccccc1)/c1ccccc1 [cis-Stilbene]	–	–	0.481 ± 2.9	3.93 ± 0.065	–	–	3.65 ± 1.4
CCN(CCCCOC(=O)c1ccc(OC)c(OC)c1)C(C)Cc1ccc(OC)cc1 (centres undefined) [Mebeverine]	0.287 ± 0.15	0.295 ± 0.096	0.145 ± 0.0059	–	69.6 ± 4.1	–	38.1 ± 4.5
Cc1cccc(Nc2ccncc2S(=O)(=O)NC(=O)NC(C)C)c1 [Torasemide]	50.8 ± 5.4	54 ± 2.9	50.9 ± 2.3	43.8 ± 3.6	73.1 ± 4.1	38.9 ± 4.2	49.1 ± 3.4
O=c1[nH]c2ccccc2n1CCCN1CCC(n2c(=O)[nH]c3cc(Cl)ccc32)CC1 [Domperidone]	44.4 ± 5.1	46.3 ± 3.7	42.3 ± 4.4	–	–	–	44.6 ± 4.9
COCC(C)N(C(=O)CS(=O)(=O)O)c1c(C)csc1C (centres undefined) [Dimethenamid ESA]	45.5 ± 8.5	51.4 ± 4.4	45.4 ± 4.1	–	–	–	49.6 ± 3.4
Cc1cccc(C(=O)O)c1N(Cn1cccn1)C(=O)C(=O)O [Metazachlor BH479-12]	42 ± 6	49.95 ± 0.36	46.4 ± 4.8	–	–	–	37.9 ± 3.8
COc1ccc2c(c1)c(CC(=O)O)c(C)n2C(=O)c1ccc(Cl)cc1 [Indometacin]	–	41.1 ± 4.4	35.8 ± 3.6	33.3 ± 1.8	–	33.6 ± 5.2	31 ± 6
Cc1cnc2c(C(=O)O)c(Cl)ccc2c1 [Quinmerac]	54.5 ± 9.6	61.1 ± 6.2	56.5 ± 1.8	40.8 ± 3.5	65.8 ± 4.1	43.6 ± 2.5	52.2 ± 6.4
COC(=O)c1cc(C(=O)OC)cc(S(=O)(=O)O)c1 [Dimethyl-5-sulfoisophthalate]	49.8 ± 6.7	54.2 ± 3.9	49.3 ± 4	45.3 ± 3	46.7 ± 3.3	44.6 ± 2.1	52.4 ± 4.3
CCCCCCCCCCCC[N+](C)(C)Cc1ccccc1 [Benzyldimethyldodecylammonium]	39.1 ± 6.7	43.2 ± 10	–	–	–	–	46.5 ± 13
